Data published in article PMC5216056 (Nature Communications, 2017).
“And” between values parts separate entries of the source, which are not always exact repeats. Equal values may be shown once. Read-outs that look alike come from different tables or passages of the source.

Legend:
hCB2R = hCB2R (Homo sapiens, UniProt P34972); assay: biochemical; assay type: biochemical; set-up: expressed in transfected cells; host or cells: Flp-In-293 (Invitrogen #R750-07), pcDNA5/FRT; details: for Emax: read-out: Emax ± SEM GTPγS hCB2R
hCB2R, sequence (P34972 whole entry): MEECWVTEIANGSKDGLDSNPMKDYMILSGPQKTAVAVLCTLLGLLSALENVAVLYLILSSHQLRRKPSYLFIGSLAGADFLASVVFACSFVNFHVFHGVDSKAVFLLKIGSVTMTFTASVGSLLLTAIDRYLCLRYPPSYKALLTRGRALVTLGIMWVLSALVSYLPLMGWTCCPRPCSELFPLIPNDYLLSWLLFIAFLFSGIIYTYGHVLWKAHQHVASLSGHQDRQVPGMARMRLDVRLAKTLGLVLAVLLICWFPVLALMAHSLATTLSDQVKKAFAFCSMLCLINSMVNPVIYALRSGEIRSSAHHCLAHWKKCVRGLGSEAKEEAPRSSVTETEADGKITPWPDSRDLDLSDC

GR (h) = biological target: T1, GR (h) (Homo sapiens, UniProt P04150); assay: CEREP panel; assay type: binding; details: for inhibition at 10 µM: read-out: % inhibition GR (h)
T1 construct: CEREP (contract assay)
T1 sequence (P04150 1-777): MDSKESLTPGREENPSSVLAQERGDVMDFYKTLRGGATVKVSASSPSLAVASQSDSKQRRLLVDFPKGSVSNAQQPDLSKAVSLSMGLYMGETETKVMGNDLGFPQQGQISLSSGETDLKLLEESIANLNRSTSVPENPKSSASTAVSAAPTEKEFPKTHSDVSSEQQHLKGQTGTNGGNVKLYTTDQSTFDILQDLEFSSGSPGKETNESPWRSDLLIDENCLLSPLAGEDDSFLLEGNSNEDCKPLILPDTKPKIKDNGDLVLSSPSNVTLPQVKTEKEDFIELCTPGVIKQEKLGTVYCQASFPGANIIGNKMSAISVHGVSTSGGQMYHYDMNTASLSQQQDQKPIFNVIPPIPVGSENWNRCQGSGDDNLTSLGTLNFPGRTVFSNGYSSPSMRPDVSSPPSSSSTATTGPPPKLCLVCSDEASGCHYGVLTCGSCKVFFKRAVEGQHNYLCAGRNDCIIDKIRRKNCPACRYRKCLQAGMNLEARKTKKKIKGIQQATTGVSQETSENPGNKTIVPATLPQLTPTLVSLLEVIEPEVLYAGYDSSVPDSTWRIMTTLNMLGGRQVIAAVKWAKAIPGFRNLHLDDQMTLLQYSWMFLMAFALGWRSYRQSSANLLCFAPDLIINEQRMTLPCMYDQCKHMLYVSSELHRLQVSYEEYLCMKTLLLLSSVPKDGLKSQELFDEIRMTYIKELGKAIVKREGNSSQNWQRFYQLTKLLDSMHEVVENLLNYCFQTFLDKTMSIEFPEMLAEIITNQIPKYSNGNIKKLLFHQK

human NAPE-PLD = biological target: T2, human NAPE-PLD (Homo sapiens, UniProt Q6IQ20); assay: NAPE-PLD inhibition; assay type: biochemical; details: for inhibition at 10 µM: read-out: NAPE-PLD % inhibition at 10 µM ± SD
T2 construct: Full length human cDNA NAPE-PLD was obtained from Natsuo Ueda; expressed in transfected cells; host or cells: HEK293T (transient), membrane fraction
T2 sequence (Q6IQ20 whole entry): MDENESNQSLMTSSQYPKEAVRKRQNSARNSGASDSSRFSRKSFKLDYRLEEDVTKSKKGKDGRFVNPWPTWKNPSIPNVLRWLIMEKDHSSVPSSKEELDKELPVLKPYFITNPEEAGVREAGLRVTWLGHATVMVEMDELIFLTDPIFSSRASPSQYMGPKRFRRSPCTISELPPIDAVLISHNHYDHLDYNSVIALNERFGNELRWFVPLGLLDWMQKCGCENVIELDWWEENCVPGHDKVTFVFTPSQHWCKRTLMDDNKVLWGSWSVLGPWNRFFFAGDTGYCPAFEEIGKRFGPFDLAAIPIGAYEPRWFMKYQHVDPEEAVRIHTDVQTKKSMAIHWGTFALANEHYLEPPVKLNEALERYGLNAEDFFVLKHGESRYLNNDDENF
Procedure: Full length human cDNA NAPE-PLD was obtained from Natsuo Ueda[58] and cloned into mammalian expression vector pcDNA3.1, containing a C-terminal Flag-tag and genes for ampicillin and neomycin resistance. All plasmids were grown in XL-10 Z-competent cells and prepped (Maxi Prep, Qiagen). Sequence analysis for the confirmation of the sequences was performed at the Leiden Genome Technology Centre.
HEK293T cells (source: Dutch Cancer Institute) were cultured at 37 °C and 7% CO2 in DMEM with glutamax, penicillin (100 μg ml^−1), streptomycin (100 μg ml^−1) and 10% New Born Calf Serum iron supplemented (Hyclone SH30072.03). Cells were passaged twice a week to appropriate confluence. Twenty-four hours before transfection 10^7 cells were seeded on a 15 cm dish. Two hours before transfection, the medium was refreshed. Transfection is performed with PEI in a ratio of 3:1 with human NAPE-PLD or Mock pcDNA3.1Neo, 20 μg per dish. Medium is refreshed after 24 h and cells are harvested after 72 h. Cell suspensions are centrifuged at 1,000g for 10 min, supernatant removed and pellets frozen at −80 °C until further use.
Cell pellets are re-suspended in lysis buffer 1: 20 mM Hepes, 2 mM DTT, 0.25 M sucrose, 1 mM MgCl2, 2.5 U ml^−1 benzonase and incubated 30 min on ice. The cytosolic fraction (supernatant) is separated from the membranes by ultra-centrifugation (32,000 rpm for 30 min 100,000g). The pellet is resuspended in buffer 2: 20 mM Hepes, 2 mM DTT (membrane fraction). All samples are stored at −80 °C. Enzyme concentrations are determined using a Bradford assay.
The membrane protein fraction from transient overexpression of NAPE-PLD in HEK293T cells was diluted to 0.4 mg ml^−1 in assay buffer: 50 mM Tris-HCl (pH 7.5), 0.02% Triton X-100, 150 mM NaCl (ref. [60]). […] Relevant concentrations of compounds are prepared in DMSO. The assay is performed in a dark Greiner 96-well plate, end volume 100 μl. The compound or DMSO is incubated with membrane protein lysate (final concentration 0.04 mg ml^−1) for 30 min at 37 °C. A sample without membrane protein lysate is incorporated for background subtraction. Then, substrate is added (final concentration 1 μM) and the measurement is started immediately on a TECAN infinite M1000 pro at 37 °C (excitation 485 nm, emission 535 nm), scanning every 2 min for 1 h.

mCB1R = biological target: T3, mCB1R (Mus musculus, UniProt P47746); assay: biochemical; details: for Emax: read-out: Emax cAMP mCB1R
T3 construct: from tissue; host or cells: brain of male C57BL/6J mice
T3 sequence (P47746 whole entry): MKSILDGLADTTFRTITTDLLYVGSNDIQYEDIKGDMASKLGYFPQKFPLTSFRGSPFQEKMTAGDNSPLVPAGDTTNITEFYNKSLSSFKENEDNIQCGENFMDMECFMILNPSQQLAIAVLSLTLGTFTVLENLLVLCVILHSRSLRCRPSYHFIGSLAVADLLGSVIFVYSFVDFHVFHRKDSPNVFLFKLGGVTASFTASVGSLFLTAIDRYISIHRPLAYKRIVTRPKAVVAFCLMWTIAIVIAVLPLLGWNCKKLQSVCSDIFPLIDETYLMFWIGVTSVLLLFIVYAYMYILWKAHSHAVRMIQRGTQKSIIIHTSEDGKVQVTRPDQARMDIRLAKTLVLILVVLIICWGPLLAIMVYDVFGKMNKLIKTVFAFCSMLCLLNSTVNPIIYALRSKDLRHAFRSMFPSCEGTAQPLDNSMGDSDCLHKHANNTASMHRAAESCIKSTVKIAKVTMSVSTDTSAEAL

[1] = normalized to 10 µM CP55940, negative = inverse agonism

| Compound | Emax ± SEM GTPγS hCB2R (hCB2R) | % inhibition GR (h) (GR (h); 10 µM) [%] | NAPE-PLD % inhibition at 10 µM ± SD (human NAPE-PLD) [%] | inhibition at 10 µM (human NAPE-PLD) [%] | pEC50 ± SEM GTPγS hCB2R (hCB2R) | pEC50 ± SEM cAMP mCB1R (mCB1R; mouse brain) | Emax cAMP mCB1R (mCB1R) | further results |
| --- | --- | --- | --- | --- | --- | --- | --- | --- |
| Cc1c(C(=O)NN2CCCCC2)nn(-c2ccc(Cl)cc2Cl)c1-c1ccc(I)cc1 [AM251] | -29 ± 2 | 84 | 10 ± 12 | – | – | – | – | – |
| CCCCCCC(C)(C)c1cc(OC)c([C@@H]2C=C(CO)[C@@H]3C[C@H]2C3(C)C)c(OC)c1 [HU308] | – | – | – | 2 ± 7 | – | – | – | Emax (hCB2R): 97 ± 12%; EC50 (mCB1R; pEC50 ± SEM cAMP mCB1R, mouse brain): > 10 µM; Emax (mCB1R): 10%; inhibition at 10 µM (GR (h)): 4% |
| Cc1ccc2c(c1)Cc1c(C(=O)NN3CCCCC3)nn(-c3ccc(Cl)cc3Cl)c1-2 [Gp-1a] | – | 71 | 3 ± 5 | – | 7.09 ± 0.07 | 5.86 ± 0.42 | – | Emax ± SEM GTPγS hCB2R (hCB2R; [1]): -14 ± 5%; Emax cAMP mCB1R (mCB1R; normalized to 10 µM CP55940): -28% |
| SR144528 | – | 9 | 8 ± 10 | – | – | – | – | Emax ± SEM GTPγS hCB2R (hCB2R; [1]): -29 ± 2%; Emax cAMP mCB1R (mCB1R; normalized to 10 µM CP55940): -39% |
| CCCn1c(C)c(C(=O)c2cccc3ccccc23)c2ccccc21 [JWH015] | – | 36 | -4 ± 12 | – | – | < 5 | – | Emax cAMP mCB1R (mCB1R; normalized to 10 µM CP55940): 29% |
| CCCCC/C=C\C/C=C\C/C=C\C/C=C\CCCC(=O)OC(CO)CO [2-AG, 2-arachidonoyl glycerol] | – | – | – | -1 ± 12 | – | – | – | Emax (hCB2R): 57 ± 11%; EC50 (hCB2R; read-out: pEC50 ± SEM GTPγS hCB2R (converted)): 0.646 µM; EC50 (mCB1R; mouse brain, read-out: pEC50 ± SEM cAMP mCB1R (converted)): > 6.31 µM and 6.92 µM |
| CN1CCCC[C@H]1Cn1cc(C(=O)c2cc([N+](=O)[O-])ccc2I)c2ccccc21 [(S)-AM1241] | 47 ± 5 | 10 | 33 ± 7 | – | – | 5.43 ± 0.42 | 16 | – |
| CN1CCCC[C@@H]1Cn1cc(C(=O)c2cc([N+](=O)[O-])ccc2I)c2ccccc21 [(R)-AM1241] | 33 ± 2 | – | 21 ± 5 | – | 7.40 ± 0.50 | 5.08 ± 0.16 | 32 | hCB2R Selectivity GTPγS (hCB2R; 10^(pEC50 CB2R-pEC50 CB1R)): 4 fold |
| CCCC(C)(C)c1ccc2c(c1)OC(C)(C)[C@@H]1CC=C(C)C[C@@H]21 [JWH133] | 61 ± 15 | 7 | 3 ± 4 | – | 6.96 ± 0.35 | – | 11 | hCB2R Selectivity GTPγS (hCB2R): 0.4; pEC50 ± SEM cAMP mCB1R (mCB1R): < 5 |
| Cc1c(C(=O)NN2CCCCC2)nn(-c2ccc(Cl)cc2Cl)c1-c1ccc(Cl)cc1 [SR141716A] | – | – | – | 0 | – | – | – | inhibition at 10 µM (GR (h); 10 µM): 43% |
| CCCCC/C=C\C/C=C\C/C=C\C/C=C\CCCC(=O)NCCO [Anandamide, N-arachidonoylethanolamine] | – | – | – | 17 ± 9 | – | – | – | Emax (hCB2R): 31 ± 4%; Emax (mCB1R): < 70% |
| CN1CCCCC1Cn1cc(C(=O)c2cc([N+](=O)[O-])ccc2I)c2ccccc21 (racemic) [(rac)-AM1241] | 56 ± 9 | – | 29 ± 11 | – | 6.89 ± 0.66 | – | 21 | hCB2R Selectivity GTPγS (hCB2R): 0.03; pEC50 ± SEM cAMP mCB1R (mCB1R): < 5 |
| CCCCCCC(C)(C)c1cc(OC)c(C2=C[C@H]3CC[C@]2(CO)C3(C)C)c(OC)c1 [HU910] | – | 4 | 8 ± 13 | – | 7.27 ± 0.12 | < 5 | – | Emax ± SEM GTPγS hCB2R (hCB2R; [1]): 61 ± 13%; Emax cAMP mCB1R (mCB1R; normalized to 10 µM CP55940): 36% |
| Cc1c(C(=O)c2cccc3ccccc23)c2cccc3c2n1[C@H](CN1CCOCC1)CO3 [WIN55212-2] | – | 63 | 8 ± 6 | – | – | – | – | – |
| CCCCCCC(C)(C)c1ccc([C@@H]2C[C@H](O)CC[C@H]2CCCO)c(O)c1 [CP55940] | – | 94 | – | 10 ± 8 | – | – | – | Emax (hCB2R): 95 ± 4%; EC50 (mCB1R; pEC50 ± SEM cAMP mCB1R): 6.03e-06 µM; Emax (mCB1R): 100%; inhibition at 10 µM (GR (h); 10 µM): 92% |
| COc1ccc(C(=O)c2c(C)n(CCN3CCOCC3)c3cc(I)ccc23)cc1 [AM630] | -22 ± 2 | 38 | -4 ± 11 | – | 6.75 ± 0.20 | < 5 | 13 | – |
